Key:
Macromiidae = conditions: acute; duration: 72 hours; biomass
Pimephales promelas = conditions: chronic/long-term; duration: 37 days; growth
Oryctolagus sp. = conditions: developmental; development
Cyprinus carpio = conditions: acute; duration: 96 hours; mortality
Tagia sp. = conditions: acute; duration: 14 days; mortality
Canidae = conditions: subchronic; duration: 90 days; oral; Dog Other; histopathology: nonneoplastic
Pleurozium sp. = conditions: chronic/long-term; duration: 120 hours; growth
Daphnia magna = conditions: chronic/long-term; duration: 21 days; reproduction
Rattus norvegicus = conditions: for LD50: acute, mortality
Apis mellifera = conditions: acute; duration: 48 hours; dermal; mortality
Landoltia sp. = conditions: acute; duration: 14 days; frond number
Lepomis macrochirus = conditions: acute; duration: 96 hours; mortality
Poecilus cupreus = test: LR50; higher = less toxic; conditions: acute; mortality

COc1nc(C)nc(NC(=O)NS(=O)(=O)c2ccccc2CCC(F)(F)F)n1 [Prosulfuron]
LD50 (Anas platyrhynchos; acute, oral, unspecified, mortality): 1300 mg/kg | NOEL (Anas platyrhynchos; reproductive): 2.95 mg/kg-day | NOEC (Macromiidae): 0.831 mg/L | NOEC (Pimephales promelas): 150 mg/L | NOAEL (Oryctolagus sp.): 10 mg/kg-day | LC50 (Cyprinus carpio): > 100 µg/mL | LC50 (Tagia sp.): > 1000 mg/kg | NOAEL (Canidae): 6 mg/kg-day | NOEC (Pleurozium sp.): 0.00278 mg/L | LC50 (Oncorhynchus mykiss; acute, duration: 96 hours, mortality): > 160 µg/mL | NOEC (Oncorhynchus mykiss; chronic/long-term, duration: 21 days, growth): 5.8 mg/L | NOEC (Daphnia magna): 148 mg/L | LD50 (Rattus norvegicus; M/F): 986 mg/kg | LD50 (Rattus norvegicus): > 755 mg/kg | NOAEL (Rattus norvegicus; chronic): 12 mg/kg-day | NOAEL (Rattus norvegicus; chronic, duration: 18 months, histopathology: nonneoplastic): 1.7 mg/kg-day | NOAEL (Rattus norvegicus; subchronic, duration: 90 days): 3 mg/kg-day | LD50 (Apis mellifera): > 100 µg/piece | NOEC (Landoltia sp.): 0.000827 mg/L | LC50 (Lepomis macrochirus): > 100 µg/mL | LR50 (Poecilus cupreus): > 15 g/ha

From EPA's ToxValDB 9.5 (doi:10.2903/j.efsa.2014.3815)
